Laboratory results reported in the Deep4Chem optical property database.
One block for each compound: values may come before it.

Experiment: solvent given as SMILES

SMILES: O=CN1N=C(c2ccc(Br)cc2)C[C@@H]1c1ccccc1
emission maximum (in C1CCCCC1): 348 nm
emission maximum (in C1COCCO1): 352 nm
emission maximum (in CC#N): 351 nm
emission maximum (in CCO): 345 nm
emission maximum (in CCOC(C)=O): 350 nm
emission maximum (in CO): 350 nm
emission maximum (in CS(C)=O): 356 nm
emission maximum (in Cc1ccccc1): 349 nm
emission maximum (in ClC(Cl)(Cl)Cl): 351 nm

SMILES: Nc1ccc(C#Cc2ccc3ccc4ccc(C#Cc5ccc(N)cc5)c5ccc2c3c45)cc1
emission maximum (in C1COCCO1): 476 nm
emission maximum (in CC(C)=O): 538 nm
emission maximum (in CCCCCC): 444 nm
emission maximum (in CCCCCCO): 534 nm
emission maximum (in CCO): 540 nm
emission maximum (in CCOC(C)=O): 506 nm
emission maximum (in CO): 557 nm
emission maximum (in Cc1ccccc1): 463 nm
emission maximum (in ClCCl): 492 nm

SMILES: c1ccc(C2CSC(c3c4ccc(=[N+]5CCCCC5)cc-4oc4cc(N5CCCCC5)ccc34)SC2)cc1 (configuration not stated)
emission maximum (in CO): 606.35 nm

SMILES: CCC1=C(C)C2=C(C)c3c(C)c(-c4csc(N5CCOCC5)n4)c(C)n3[B-](F)(F)[N+]2=C1C
emission maximum (in C1CCOC1): 618 nm
emission maximum (in C1COCCO1): 606 nm
emission maximum (in CC#N): 543 nm
emission maximum (in CC(C)O): 538 nm
emission maximum (in CCO): 539 nm
emission maximum (in CCOC(C)=O): 549 nm
emission maximum (in CN(C)C=O): 539 nm
emission maximum (in CO): 540 nm
emission maximum (in CS(C)=O): 539 nm
emission maximum (in Cc1ccccc1): 597 nm
emission maximum (in ClC(Cl)Cl): 603 nm
emission maximum (in ClCCl): 537 nm

SMILES: N#Cc1cnc(-c2c3ccccc3cc3ccccc23)nc1
emission maximum (in CCO): 510 nm
emission maximum (in ClCCl): 492 nm

SMILES: Cc1ccc2nc3cc4c(cc3c(-c3ccccc3)c2c1)[Si](C)(C)O[Si](C)(C)O[Si]4(C)C
emission maximum (in ClCCl): 502 nm

SMILES: [NH3+]c1ccc2ccc(O)cc2c1
emission maximum (in O): 357 nm

SMILES: CC1=N/C(=C\c2cc(C#N)cc(N(C)C)c2)C(=O)N1C
emission maximum (in C1CCOC1): 544 nm
emission maximum (in CC#N): 595 nm
emission maximum (in CCCCCC): 475 nm

SMILES: CN(C)c1ccc(C#Cc2ccc3ccc4ccc(C#Cc5ccc(N(C)C)cc5)c5ccc2c3c45)cc1
emission maximum (in C1COCCO1): 491.8 nm
emission maximum (in CC(C)=O): 570.9 nm
emission maximum (in CCCCCC): 459 nm
emission maximum (in CCCCCCO): 531.8 nm
emission maximum (in CCO): 543 nm
emission maximum (in CCOC(C)=O): 529.9 nm
emission maximum (in CO): 555.1 nm
emission maximum (in Cc1ccccc1): 482 nm
emission maximum (in ClCCl): 532.7 nm

SMILES: CC1CC=C(c2ccc(-c3ccc(C=O)s3)s2)CC1 (configuration not stated)
emission maximum (in C1CCOC1): 467 nm
emission maximum (in CC#N): 482 nm
emission maximum (in CCCCCC): 445 nm
emission maximum (in CCO): 500 nm
emission maximum (in OCCOCCO): 508 nm
emission maximum (in c1ccncc1): 483 nm

SMILES: c1ccc(-c2nc(-c3ccc(-c4ccc(-n5c6ccccc6c6ccccc65)cc4)cn3)oc2-c2ccccc2)cc1
emission maximum (in C1CCOC1): 411 nm
emission maximum (in C1COCCO1): 406 nm
emission maximum (in CC#N): 415 nm
emission maximum (in CC(C)=O): 413 nm
emission maximum (in CC(C)OC(C)C): 398 nm
emission maximum (in CCCCCC): 392 nm
emission maximum (in CCCCOCCCC): 399 nm
emission maximum (in CCN(CC)CC): 396 nm
emission maximum (in CCOC(C)=O): 408 nm
emission maximum (in CCOCC): 400 nm
emission maximum (in Cc1ccccc1): 404 nm
emission maximum (in c1ccccc1): 405 nm

SMILES: Cc1ccc(-c2c3ccc([nH]3)c3nc(c(-c4ccc([N+](=O)[O-])cc4)c4ccc([nH]4)c4ccc([nH]4)c(-c4ccc(C)cc4)c4ccc2o4)C=C3)cc1
emission maximum (in C1CCOC1): 758 nm
emission maximum (in Cc1ccccc1): 737 nm
emission maximum (in c1ccccc1): 737 nm

SMILES: c1ccc(-c2nn(-c3ccccc3)c3nc4ccc(N(c5ccccc5)c5cccc6ccccc56)cc4cc23)cc1
emission maximum (in C1CCCCC1): 484.73 nm
emission maximum (in C1CCOC1): 516 nm
emission maximum (in CC#N): 555.25 nm
emission maximum (in CC(C)=O): 538.21 nm
emission maximum (in CCCCCl): 509.68 nm
emission maximum (in CCCCOCCCC): 494.8 nm
emission maximum (in CN(C)C=O): 553.1 nm

SMILES: CC[N+]1(CC)CN2C(=N1)C(C(=O)O)=Cc1cc(C)ccc12
emission maximum (in O): 469 nm

SMILES: C(#Cc1ccccc1)C(C#Cc1ccccc1)=Cc1ccc(C=C(C#Cc2ccccc2)C#Cc2ccccc2)cc1
emission maximum (in ClC(Cl)Cl): 475 nm

SMILES: c1ccc(-c2ccc(-c3ccc(-n4c5ccccc5c5ccccc54)cc3)c3nsnc23)cc1
emission maximum (in C1CCOC1): 527 nm
emission maximum (in CC(C)=O): 562 nm
emission maximum (in CCCCCC): 481 nm
emission maximum (in CCOCC): 504 nm

SMILES: CCCCCCCCC1(CCCCCCCC)c2cc3c(cc2-c2sc(-c4ccc(/C=C5\SC(N6CCCCC6)=NC5=O)c5nsnc45)cc21)C(CCCCCCCC)(CCCCCCCC)c1cc(-c2ccc(/C=C4\SC(N5CCCCC5)=NC4=O)c4nsnc24)sc1-3
emission maximum (in ClC(Cl)Cl): 675 nm

SMILES: c1ccc(N(c2ccccc2)c2cc3c4c(c2)N(c2ccccc2)c2cc5c(cc2B4c2ccccc2N3c2ccccc2)B2c3ccccc3N(c3ccccc3)c3cc(N(c4ccccc4)c4ccccc4)cc(c32)N5c2ccccc2)cc1
emission maximum (in Cc1ccccc1): 468 nm
emission maximum (in Cc1ccccc1-c1cccc(Oc2cc3c4c(c2)Oc2cc(-c5ccccc5C)ccc2B4c2ccc(-c4ccccc4C)cc2O3)c1): 473 nm

SMILES: CCNc1ccc(NCC)c2c1C(=O)c1ccccc1C2=O
emission maximum (in C1CCCCC1): 670 nm
emission maximum (in C1COCCO1): 684 nm
emission maximum (in CC(C)=O): 671 nm
emission maximum (in CCCCCCCCCCO): 672 nm
emission maximum (in CCCCCCCO): 666 nm
emission maximum (in CCCCCCO): 663 nm
emission maximum (in CCCCO): 670 nm
emission maximum (in CCO): 672 nm
emission maximum (in CN(C)C=O): 680 nm
emission maximum (in CO): 669 nm
emission maximum (in CS(C)=O): 672 nm
emission maximum (in ClC(Cl)(Cl)Cl): 679 nm
emission maximum (in c1ccccc1): 670 nm

SMILES: CCN1C(=O)C(C2C(=O)c3c4ccccc4cc4cc5ccccc5c2c34)SC1=S (configuration not stated)
emission maximum (in C1CCOC1): 570 nm
emission maximum (in CC#N): 593 nm
emission maximum (in CCCCCC): 539 nm
emission maximum (in Cc1ccccc1): 563 nm
emission maximum (in ClCCl): 582 nm

SMILES: C(=C\c1nc2c(c(N3CCOCC3)n1)CCCC2)/c1ccccc1
emission maximum (in ClCCl): 333 nm

SMILES: CN(C)c1ccc(/C=C/C=C/c2ccc(B(O)O)cc2)cc1
emission maximum (in C1CCCCC1): 441 nm

SMILES: CCC1(CC)c2ccccc2-c2c1c1c(c3c2C(CC)(CC)c2cc(B(c4c(C)cc(C)cc4C)c4c(C)cc(C)cc4C)ccc2-3)C(CC)(CC)c2cc(B(c3c(C)cc(C)cc3C)c3c(C)cc(C)cc3C)ccc2-1
emission maximum (in C1CCOC1): 387 nm
emission maximum (in CC#N): 398 nm
emission maximum (in CC(C)=O): 394 nm
emission maximum (in CCCCCC): 378 nm
emission maximum (in ClC(Cl)Cl): 387 nm

SMILES: Cc1ccc(N(c2ccc(C)cc2)c2ccc(-c3cc4c(cc(-c5ccc(N(c6ccc(C)cc6)c6ccc(C)cc6)cc5)c5nsnc54)c4nsnc34)cc2)cc1
emission maximum (in Cc1ccccc1): 659 nm
emission maximum (in ClCCl): 683 nm

SMILES: COC(=O)/C(C#N)=c1\s/c(=c2/s/c(=C(/C#N)C(=O)OC)c3cc(-c4ccc(F)cc4)sc23)c2sc(-c3ccc(F)cc3)cc12
emission maximum (in Cc1ccccc1): 640 nm

SMILES: COc1ccc(C2=C3C=CC(C)=[N+]3[B-](F)(F)n3c(C)ccc32)cc1
emission maximum (in C1CCCCC1): 521 nm
emission maximum (in C1CCOC1): 521 nm
emission maximum (in CC#N): 517 nm
emission maximum (in CCOC(C)=O): 518 nm
emission maximum (in CO): 518 nm
emission maximum (in Cc1ccccc1): 524 nm
emission maximum (in ClC(Cl)Cl): 523 nm

SMILES: C#CCN1C(=O)/C(=C/c2cc(OC(C)C)ccc2OC(C)C)N=C1C
emission maximum (in C1COCCO1): 476 nm
emission maximum (in CC#N): 508 nm
emission maximum (in CC(C)=O): 487 nm
emission maximum (in CCCCCC): 440 nm
emission maximum (in CCCCO): 516 nm
emission maximum (in CCCO): 521 nm
emission maximum (in CCO): 523 nm
emission maximum (in CCOC(C)=O): 475 nm
emission maximum (in CN(C)C=O): 500 nm
emission maximum (in CO): 538 nm
emission maximum (in CS(C)=O): 510 nm

Continued, values first:

emission maximum (in ClCCl): 401 nm
SMILES: CCCCN1c2ccccc2B(c2ccccc2C(F)(F)F)c2ccccc21

emission maximum (in ClCCl): 562 nm
SMILES: CN(C)c1ccc(C#Cc2cc(C#Cc3ccc(N(C)C)cc3)c3ccc4c(C#Cc5ccc(N(C)C)cc5)cc(C#Cc5ccc(N(C)C)cc5)c5ccc2c3c54)cc1

emission maximum (in CC#N): 392 nm
SMILES: Cc1ccc(-c2ccc(/C=C/c3ccc(Cl)cc3)cn2)nc1

emission maximum (in CS(C)=O): 517 nm
SMILES: CCOC(=O)C1=C(N)n2c(=O)c3ccccc3c(=O)n2C1c1ccc(C)cc1 (configuration not stated)

emission maximum (in ClCCl): 451 nm
SMILES: CCOC(=O)c1c(C(=O)OC)c(-c2cc3cc(OC)ccc3oc2=O)nn1-c1ccccc1

emission maximum (in C1CCCCC1): 477.08 nm
SMILES: C[Si](C)(C)C#CC#Cc1ccc2c3cccc4cccc(c5cccc1c52)c43

emission maximum (in C1CCCCC1): 455 nm
SMILES: N#Cc1cc(-c2ccccc2)c(N2c3ccccc3Oc3ccccc32)c(-c2ccccc2)c1

emission maximum (in ClC(Cl)Cl): 431 nm
SMILES: Cc1ccc2nc3c4c(c5ccccc5c3nc2c1)OC(=O)CC4c1ccc(F)cc1 (configuration not stated)

emission maximum (in CC#N): 429 nm
emission maximum (in CCO): 450 nm
SMILES: Cc1cc(=O)oc2ccc3ccc(O)cc3c12

emission maximum (in ClCCl): 530 nm
SMILES: C(=C\c1ncccn1)/c1ccc(-c2ccc(N(c3ccccc3)c3ccccc3)cc2)cc1

emission maximum (in ClCCl): 519 nm
SMILES: CCN(CC)c1ccc2cc(-c3nc4c5cccc6ccc7cccc(c7c65)c4n3-c3ccc(C(C)(C)C)cc3)c(=O)oc2c1

emission maximum (in C1CCCCC1): 375 nm
SMILES: c1ccc(-c2c3c(c(-c4ccccc4)c4c2-c2ccccc2C4)-c2ccccc2C3)cc1

emission maximum (in ClCCl): 421 nm
SMILES: c1ccc2c(-c3c4ccccc4c(-c4ccc(-n5c6ccccc6c6ccccc65)cc4)c4ccccc34)cccc2c1

emission maximum (in C1COCCO1): 376 nm
emission maximum (in CC#N): 382 nm
emission maximum (in CO): 405 nm
emission maximum (in ClCCl): 371 nm
SMILES: COC(=O)c1nc2c(OCc3ccccc3)nc(N)nc2n1Cc1ccccc1

emission maximum (in ClCCl): 709 nm
SMILES: CC1=C(c2ccc(N(c3ccccc3)c3ccccc3)cc2)C(C)=[N+]2C1=C(c1c(-c3ccccn3)nc3ccccn13)c1c(C)c(-c3ccc(N(c4ccccc4)c4ccccc4)cc3)c(C)n1[B-]2(F)F

emission maximum (in CO): 645 nm
SMILES: Cc1cc(C)c(B(c2cc(-c3ccc(N(C)C)cc3)sc2-c2sc(-c3ccc(N(C)C)cc3)cc2P(=O)(c2ccccc2)c2ccccc2)c2c(C)cc(C)cc2C)c(C)c1

emission maximum (in ClC(Cl)Cl): 519.7 nm
SMILES: CC1=CC(C)=[N+]2C1=C(c1ccc(I)cc1)c1c(C)cc(C)n1[B-]2(Oc1ccc(Cl)cc1)Oc1ccc(Cl)cc1

emission maximum (in ClCCl): 417 nm
SMILES: c1ccc(-c2c3ccccc3c(-c3ccc(-c4cccnc4)cc3)c3ccccc23)cc1
